{"source": "PubChem BioAssay AID252", "about": "(DTP/NCI, 2004)", "test_system": "BDF1 mice, intracerebral L1210 leukemia, survival T/C", "assay": "NCI In Vivo Anticancer Drug Screen. Data for tumor model L1210 Leukemia (intracerebral) in B6D2F1 (BDF1) mice", "conditions": "endpoint: mean survival time, higher = longer survival", "protocol": "The antitumor activity of compounds was measured in mice bearing transplantable tumors. Survival or tumor size were measured and the results are expressed as the measurement made in the treated group (T) divided by the measurement made in the vehicle treated control group (C). The tumor model used in this assay is L1210 Leukemia (intracerebral) in B6D2F1 (BDF1) mice", "note": "Values joined by “and” are separate entries in the source; they are usually repeats but may differ in a detail not shown here. Equal entries are not always repeated. Toxic doses and inconclusive results are not listed."}
{"compound": "Cc1c(C)c(NC(=O)N(CCCl)N=O)c(C)c(C)c1NC(=O)N(CCCl)N=O", "values": [{"measurement": "T/C", "setting": "dose: 15.5 mg/kg/injection, schedule: Q01DX001 (ip), vehicle: other", "value": "102 % of control"}, {"measurement": "T/C", "setting": "dose: 31.0 mg/kg/injection, schedule: Q01DX001 (ip), vehicle: other", "value": "98 % of control"}, {"measurement": "T/C", "setting": "dose: 62.0 mg/kg/injection, schedule: Q01DX001 (ip), vehicle: other", "value": "101 % of control"}, {"measurement": "T/C", "setting": "dose: 250.0 mg/kg/injection, schedule: Q01DX001 (ip), vehicle: other", "value": "171 % of control and 175 % of control"}, {"measurement": "T/C", "setting": "dose: 375.0 mg/kg/injection, schedule: Q01DX001 (ip), vehicle: other", "value": "182 % of control and 183 % of control"}, {"measurement": "T/C", "setting": "dose: 500.0 mg/kg/injection, schedule: Q01DX001 (ip), vehicle: other", "value": "172 % of control and 178 % of control"}, {"measurement": "T/C", "setting": "dose: 501.0 mg/kg/injection, schedule: Q01DX001 (ip), vehicle: other", "value": "93 % of control"}]}
{"compound": "O=NN(CCCl)C(=O)NC(Cc1ccccc1)C(=O)O", "note": "(configuration not stated)", "values": [{"measurement": "T/C", "setting": "dose: 18.0 mg/kg/injection, schedule: Q01DX001 (ip), vehicle: gum acacia", "value": "119 % of control"}, {"measurement": "T/C", "setting": "dose: 28.0 mg/kg/injection, schedule: Q01DX001 (ip), vehicle: gum acacia", "value": "119 % of control"}, {"measurement": "T/C", "setting": "dose: 42.0 mg/kg/injection, schedule: Q01DX001 (ip), vehicle: gum acacia", "value": "117 % of control"}, {"measurement": "T/C", "setting": "dose: 63.0 mg/kg/injection, schedule: Q01DX001 (ip), vehicle: gum acacia", "value": "120 % of control"}, {"measurement": "T/C", "setting": "dose: 112.0 mg/kg/injection, schedule: Q01DX001 (ip), vehicle: gum acacia", "value": "103 % of control"}]}
{"compound": "NC(Cc1ccc(N(CCCl)CCCl)cc1)C(=O)O", "note": "(configuration not stated)", "values": [{"measurement": "T/C", "setting": "dose: 8.0 mg/kg/injection, schedule: Q01DX001 (ip), vehicle: carboxymethylcellulose (CMC)", "value": "119 % of control"}, {"measurement": "T/C", "setting": "dose: 12.0 mg/kg/injection, schedule: Q01DX001 (ip), vehicle: carboxymethylcellulose (CMC)", "value": "117 % of control"}]}
{"compound": "CC(=O)c1ccc(NC(=O)N(CCCl)N=O)cc1", "values": [{"measurement": "T/C", "setting": "dose: 37.5 mg/kg/injection, schedule: Q01DX001 (ip), vehicle: carboxymethylcellulose (CMC)", "value": "117 % of control"}, {"measurement": "T/C", "setting": "dose: 50.0 mg/kg/injection, schedule: Q01DX001 (ip), vehicle: carboxymethylcellulose (CMC)", "value": "118 % of control"}, {"measurement": "T/C", "setting": "dose: 75.0 mg/kg/injection, schedule: Q01DX001 (ip), vehicle: carboxymethylcellulose (CMC)", "value": "121 % of control"}]}
{"compound": "O=C1NC2(CCCCC2)C(=O)N1CCN(CCCl)CCCl", "values": [{"measurement": "T/C", "setting": "dose: 0.78 mg/kg/injection, schedule: Q01DX009 (ip), vehicle: saline", "value": "101 % of control"}, {"measurement": "T/C", "setting": "dose: 1.56 mg/kg/injection, schedule: Q01DX009 (ip), vehicle: saline", "value": "89 % of control"}, {"measurement": "T/C", "setting": "dose: 3.12 mg/kg/injection, schedule: Q01DX009 (ip), vehicle: saline", "value": "95 % of control"}, {"measurement": "T/C", "setting": "dose: 6.25 mg/kg/injection, schedule: Q01DX009 (ip), vehicle: saline", "value": "102 % of control"}, {"measurement": "T/C", "setting": "dose: 12.5 mg/kg/injection, schedule: Q01DX009 (ip), vehicle: saline", "value": "91 % of control"}]}
{"compound": "O=NN(CCF)C(=O)NCCF", "values": [{"measurement": "T/C", "setting": "dose: 3.5 mg/kg/injection, schedule: Q01DX001 (ip), vehicle: saline", "value": "160 % of control"}, {"measurement": "T/C", "setting": "dose: 5.0 mg/kg/injection, schedule: Q01DX001 (ip), vehicle: saline", "value": "208 % of control"}, {"measurement": "T/C", "setting": "dose: 7.0 mg/kg/injection, schedule: Q01DX001 (ip), vehicle: saline", "value": "254 % of control"}, {"measurement": "T/C", "setting": "dose: 8.0 mg/kg/injection, schedule: Q01DX001 (ip), vehicle: saline", "value": "284 % of control"}, {"measurement": "T/C", "setting": "dose: 14.0 mg/kg/injection, schedule: Q01DX001 (ip), vehicle: saline", "value": "303 % of control"}]}
{"compound": "C[n+]1c2ccccc2c(Nc2ccc(NS(=O)(=O)CCCCN=C(N)N)cc2)c2ccc(N)cc21", "values": [{"measurement": "T/C", "setting": "dose: 1.5 mg/kg/injection, schedule: Q01DX009 (ip), vehicle: water", "value": "103 % of control"}, {"measurement": "T/C", "setting": "dose: 3.0 mg/kg/injection, schedule: Q01DX009 (ip), vehicle: water", "value": "121 % of control"}, {"measurement": "T/C", "setting": "dose: 6.0 mg/kg/injection, schedule: Q01DX009 (ip), vehicle: water", "value": "117 % of control"}, {"measurement": "T/C", "setting": "dose: 12.0 mg/kg/injection, schedule: Q01DX009 (ip), vehicle: water", "value": "101 % of control"}]}
{"compound": "O=NN(CCF)C(=O)NCCCl", "values": [{"measurement": "T/C", "setting": "dose: 9.0 mg/kg/injection, schedule: Q01DX001 (ip), vehicle: Klucel (hydroxypropylcellulose) (HPC)", "value": "156 % of control and 203 % of control"}, {"measurement": "T/C", "setting": "dose: 14.0 mg/kg/injection, schedule: Q01DX001 (ip), vehicle: Klucel (hydroxypropylcellulose) (HPC)", "value": "233 % of control and 338 % of control"}, {"measurement": "T/C", "setting": "dose: 21.0 mg/kg/injection, schedule: Q01DX001 (ip), vehicle: Klucel (hydroxypropylcellulose) (HPC)", "value": "456 % of control and 513 % of control"}, {"measurement": "T/C", "setting": "dose: 32.0 mg/kg/injection, schedule: Q01DX001 (ip), vehicle: Klucel (hydroxypropylcellulose) (HPC)", "value": "622 % of control and 710 % of control"}, {"measurement": "T/C", "setting": "dose: 48.0 mg/kg/injection, schedule: Q01DX001 (ip), vehicle: Klucel (hydroxypropylcellulose) (HPC)", "value": "727 % of control"}, {"measurement": "T/C", "setting": "dose: 71.0 mg/kg/injection, schedule: Q01DX001 (ip), vehicle: Klucel (hydroxypropylcellulose) (HPC)", "value": "228 % of control"}]}
